From patent US6476034B2, “Antiviral azaindole derivatives” (priority 2000, dated 2002)

System: single-round infectious HIV-1 reporter virus
Assay: microbe, parasite or virus in culture
Type: cell-based
Conditions: for EC50: Human immunodeficiency virus 1, HeLa-CD4/CCR5; for inhibition at 10 µM: Human immunodeficiency virus 1, HeLa-CD4/CCR5, 72 h, read-out: Average % inhibition at or <10 μM; for Average % inhibition at or <10 μM: HeLa CD4 CCR5 cells, luciferase expression 3 days (72 hours) after infection, compounds tested below 10 μM: % inhibition at 10 μM extrapolated with XLfit, mean of at least two experiments

Molecule	EC50 [nM]	inhibition at 10 µM [%]	Average % inhibition at or <10 μM [%]
COc1cncc2[nH]cc(C(=O)C(=O)N3CCN(C(=O)c4ccccc4)CC3)c12 [Compound 39, N-(benzoyl)-N′-[(4-methoxy-6-azaindol-3-yl)-oxoacetyl]-piperazine]	< 1000		
CC(C)C1CN(C(=O)c2c[nH]c3ncccc23)CCN1C(=O)c1ccccc1 (stereo not drawn) [Compound 5ad, N-(benzoyl)-2-iso-Propyl-N′-[(7-azaindol-3-yl)-carbonyl]-piperazine]	> 500		
CC1CN(C(=O)c2ccccc2)CCN1C(=O)C(=O)c1c[nH]c2cnccc12 (stereo not drawn) [Compound 5q, N-(benzoyl)-3-Methyl-N′[(6-azaindol-3-yl)-oxoacetyl]-piperazine]	< 1000	97	
C[C@@H]1CN(C(=O)c2ccccc2)CCN1C(=O)C(=O)c1c[nH]c2ccncc12 [Compound 5m, (R)-N-(benzoyl)-3-methyl-N′-[(5-azaindol-3-yl)-oxoacetyl]-piperazine]	> 500	60	
C[C@@H]1CN(C(=O)c2ccccc2)[C@@H](C)CN1C(=O)C(=O)c1c[nH]c2ncccc12 (relative stereo) [Compound 5i, trans-N-(benzoyl)-2,5-dimethyl-N′-[(7-azaindol-3-yl)-oxoacetyl]-piperazine]	< 1000	89	
CCCSc1ccc2c(C(=O)C(=O)N3CCN(C(=O)c4ccccc4)C[C@H]3C)c[nH]c2n1 [Compound 17f, (R)-N-(benzoyl)-3-methyl-N′-[(6-propylthiol-7-azaindol-3-yl)-oxoacetyl]-piperazine]			>99
COc1cc[n+]([O-])c2[nH]cc(C(=O)C(=O)N3CCN(C(=O)c4ccccc4)C[C@H]3C)c12 [Compound 16a, (R)-N-(benzoyl)-3-methyl-N′-[(4-methoxy-7-oxide-7-azaindol-3-yl)-oxoacetyl]-piperazine]			>99
C[C@@H]1CN(C(=O)c2ccccc2)CCN1C(=O)C(=O)c1c[nH]c2nc(F)cc([N+](=O)[O-])c12 [Compound 10a, (R)-N-(benzoyl)-3-methyl-N′-[(4-nitro-6-fluoro-7-azaindol-3-yl)-oxoacetyl]-piperazine]	< 1000	> 99	
CCC1CN(C(=O)c2ccccc2)CCN1C(=O)C(=O)c1c[nH]c2ncccc12 (stereo not drawn) [Compound 5g, N-(benzoyl)-3-ethyl-N′-[(7-azaindol-3-yl)-oxoacetyl]-piperazine]	< 1000	70	
C[C@@H]1CN(C(=O)c2ccccc2)CCN1C(=O)C(=O)c1c[nH]c2nccc(O)c12 [Compound 5ah, (R)-N-(benzoyl)-3-methyl-N′-[(4-hydroxyl-7-azaindol-3-yl)-oxoacetyl]-piperazine]	> 5000		
CCC1CN(C(=O)c2c[nH]c3ncccc23)CCN1C(=O)c1ccccc1 (stereo not drawn) [Compound 5c, N-(benzoyl)-2-ethyl-N′-[(7-azaindol-3-yl)-carbonyl]-piperazine]	< 1000	80	
CC1CN(C(=O)C(=O)c2c[nH]c3ncccc23)CCN1C(=O)c1ccccc1 (stereo not drawn) [Compound 5e, N-(benzoyl)-2-methyl-N′-[(7-azaindol-3-yl)-oxoacetyl]-piperazine]	< 1000	80	
CCC1CN(C(=O)C(=O)c2c[nH]c3ncccc23)CCN1C(=O)c1ccccc1 (stereo not drawn) [Compound 5b, N-(benzoyl)-2-ethyl-N′-[(7-azaindol-3-yl)-oxoacetyl]-piperazine]	< 1000	90	
C[C@@H]1CN(C(=O)c2ccccc2)CCN1C(=O)C(=O)c1c[nH]c2nccc(NO)c12 [Compound 19a, (R)-N-(benzoyl)-3-methyl-N′-[(4-hydroxylamino-7-azaindol-3-yl)-oxoacetyl]-piperazine]	< 1000	98	
C[C@@H]1CN(C(=O)c2ccccc2)CCN1C(=O)C(=O)c1c[nH]c2nccc(OCC(F)(F)F)c12 [Compound 17b, (R)-N-(benzoyl)-3-methyl-N′-[(4-(2,2,2-trifluoroethoxy)-7-azaindol-3-yl)-oxoacetyl]-piperazine]	< 1000	99	
C[C@@H]1CN(C(=O)c2ccccc2)CCN1C(=O)C(=O)c1c[nH]c2c1ccc[n+]2[O-] [Compound 8a, (R)-N-(benzoyl)-3-methyl-N′-[(7-oxide-7-azaindol-3-yl)-oxoacetyl]-piperazine]			90
C[C@@H]1CN(C(=O)c2ccccc2)CCN1C(=O)C(=O)c1c[nH]c2ncccc12 [Compound 5a, (R)-N-(benzoyl)-3-methyl-N′-[(7-azaindol-3-yl)-oxoacetyl]-piperazine]	< 1000	> 99	
N-(pyridin-2-yl)-N′-[(7-azaindol-3-yl)-oxoacetyl]-piperazine [Compound 5j]			90
Cc1ccnc2c(C(=O)C(=O)N3CCN(C(=O)c4ccccc4)C[C@H]3C)c[nH]c12 [Compound 5x, (R)-N-(benzoyl)-3-Methyl-N′-[(7-Methyl-4-azaindol-3-yl)-oxoacetyl]-piperazine]	< 1000	99	

Molecule	EC50 [nM]	inhibition at 10 µM [%]	Average % inhibition at or <10 μM [%]
C[C@H]1CN(C(=O)c2ccccc2)CCN1C(=O)C(=O)c1c[nH]c2cnccc12 [Compound 5s, (S)-N-(benzoyl)-3-Methyl-N′-[(6-azaindol-3-yl)-oxoacetyl]-piperazine]	> 500	56	
C[C@@H]1CN(C(=O)c2ccccc2)CCN1C(=O)C(=O)c1c[nH]c2c(N(C)C)nccc12 [Compound 27c, (R)-N-(benzoyl)-3-methyl-N′-[(7-dimethylamino-6-azaindol-3-yl)-oxoacetyl]-piperazine]	< 1000	63	
COc1ccnc2[nH]cc(C(=O)C(=O)N3CCN(C(=O)c4ccccc4)C[C@@H]3C)c12 [Compound 17d, (S)-N-(benzoyl)-3-methyl-N′-[(4-methoxy-7-azaindol-3-yl)-oxoacetyl]-piperazine]	< 1000	98	
C[C@@H]1CN(C(=O)c2ccccc2)CCN1C(=O)C(=O)c1c[nH]c2cnccc12 [Compound 5r, (R)-N-(benzoyl)-3-Methyl-N′-[(6-azaindol-3-yl)-oxoacetyl]-piperazine]	< 1000	> 99	
C[C@@H]1CN(c2ccccn2)CCN1C(=O)C(=O)c1c[nH]c2ncccc12 [Compound 5k, (R)-N-(pyridin-2-yl)-3-methyl/N′-[(7-azaindol-3-yl)-oxoacetyl]-piperazine]			>99
CCOc1cc[n+]([O-])c2[nH]cc(C(=O)C(=O)N3CCN(C(=O)c4ccccc4)C[C@H]3C)c12 [Compound 16d, (R)-N-(benzoyl)-3-methyl-N′-[(4-ethoxy-7-oxide-7-azaindol-3-yl)-oxoacetyl]-piperazine]			88
CCCSc1cc[n+]([O-])c2[nH]cc(C(=O)C(=O)N3CCN(C(=O)c4ccccc4)C[C@H]3C)c12 [Compound 16e, (R)-N-(benzoyl)-3-methyl-N′-[(4-propylthio-7-oxide-7-azaindol-3-yl)-oxoacetyl]-piperazine]			50
C[C@@H]1CN(C(=O)c2ccccc2)CCN1C(=O)C(=O)c1c[nH]c2nc(O)ccc12 [Compound 14a, (R)-N-(benzoyl)-3-methyl-N′-[(6-hydroxyl-7-azaindol-3-yl)-oxoacetyl]-piperazine]		> 99	
C[C@@H]1CN(C(=O)c2ccccc2)CCN1C(=O)C(=O)c1c[nH]c2c[n+]([O-])ccc12 [Compound 8b, (R)-N-(benzoyl)-3-methyl-N′-[(6-oxide-6-azaindol-3-yl)-oxoacetyl]-piperazine]			91
C[C@@H]1CN(c2ccc(Br)o2)CCN1C(=O)C(=O)c1c[nH]c2ncccc12 [Compound 5l, (R)-N-(5-bromo-furan-2-yl)-3-methyl-N′-[(7-azaindol-3-yl)-oxoacetyl]-piperazine]	< 1000	> 99	
CC(C)Oc1ccnc2[nH]cc(C(=O)C(=O)N3CCN(C(=O)c4ccccc4)C[C@H]3C)c12 [Compound 17c, (R)-N-(benzoyl)-3-methyl-N′-[(4-(1-methylethoxy)-7-azaindol-3-yl)-oxoacetyl]-piperazine]	< 1000	> 99	
CC(C)C1CN(C(=O)c2ccccc2)CCN1C(=O)C(=O)c1c[nH]c2ncccc12 (stereo not drawn) [Compound 5ab, N-(benzoyl)-3-iso-Propyl-N′-[(7-azaindol-3-yl)-oxoacetyl]-piperazine]	> 500		
C[C@@H]1CN(C(=O)c2ccccc2)CCN1C(=O)C(=O)c1c[nH]c2cccnc12 [Compound 5w, (R)-N-(benzoyl)-3-Methyl-N′-[(4-azaindol-3-yl)-oxoacetyl]-piperazine]	< 1000	98	
C[C@@H]1CN(C(=O)c2ccccc2)CCN1C(=O)C(=O)c1c[nH]c2c1c([N+](=O)[O-])cc[n+]2[O-] [Compound 15a, (R)-N-(benzoyl)-3-methyl-N′-[(4-nitro-7-oxide-7-azaindol-3-yl)-oxoacetyl]-piperazine]			70
COc1ccnc2c(C(=O)C(=O)N3CCN(C(=O)c4ccccc4)C[C@H]3C)cn(C)c12 [Compound 5z, (R)-N-(benzoyl)-3-Methyl-N′-[(7-Methoxy-1-methyl-4-azaindol-3-yl)-oxoacetyl]-piperazine]	< 1000	97	
C[C@@H]1CN(C(=O)c2ccccc2)CCN1C(=O)C(=O)c1c[nH]c2nc(C#N)ccc12 [Compound 12a, (R)-N-(benzoyl)-3-methyl-N′-[(6-cyano-7-azaindol-3-yl)-oxoacetyl]-piperazine]	< 1000	> 99	
CC1(C)CN(C(=O)c2ccccc2)CCN1C(=O)C(=O)c1c[nH]c2ncccc12 [Compound 5h, N-(benzoyl)-3,3-dimethyl-N′-[(7-azaindol-3-yl)-oxoacetyl]-piperazine]	1000 to 5000	80	
C[C@@H]1CN(C(=O)c2ccccc2)CCN1C(=O)C(=O)c1c[nH]c2nc(Cl)ccc12 [Compound 9b, (R)-N-(benzoyl)-3-methyl-N′-[(6-chloro-7-azaindol-3-yl)-oxoacetyl]-piperazine]	< 1000	> 99	
